From ChEMBL document CHEMBL1649134, “Occurrence of efflux mechanism and cephalosporinase variant in a population of Enterobacter aerogenes and Klebsiella pneumoniae isolates producing extended-spectrum beta-lactamases” (2009)
≈ marks a conversion by molar mass, not a printed value.

Experiments:
Type in all cases: functional
Klebsiella aerogenes [1] = test: Antimicrobial activity against multidrug resistant Enterobacter aerogenes isolate 15 by broth dilution method in presence of 26.3 mg/L efflux pump inhibitor phenylalanine-arginine-beta-naphthylamide
Klebsiella aerogenes [2] = test: Antimicrobial activity against multidrug resistant Enterobacter aerogenes isolate 16 by broth dilution method in presence of 26.3 mg/L efflux pump inhibitor phenylalanine-arginine-beta-naphthylamide
Klebsiella aerogenes [3] = test: Antimicrobial activity against multidrug resistant Enterobacter aerogenes isolate 18 by broth dilution method in presence of 26.3 mg/L efflux pump inhibitor phenylalanine-arginine-beta-naphthylamide
Klebsiella aerogenes [4] = test: Antimicrobial activity against multidrug resistant Enterobacter aerogenes isolate 20 by broth dilution method in presence of 26.3 mg/L efflux pump inhibitor phenylalanine-arginine-beta-naphthylamide
Klebsiella aerogenes [5] = test: Antimicrobial activity against multidrug resistant Enterobacter aerogenes isolate 21 by broth dilution method in presence of 26.3 mg/L efflux pump inhibitor phenylalanine-arginine-beta-naphthylamide
Klebsiella aerogenes [6] = test: Antimicrobial activity against multidrug resistant Enterobacter aerogenes isolate 22 by broth dilution method in presence of 26.3 mg/L efflux pump inhibitor phenylalanine-arginine-beta-naphthylamide
Klebsiella aerogenes [7] = test: Antimicrobial activity against multidrug resistant Enterobacter aerogenes isolate 23 by broth dilution method in presence of 26.3 mg/L efflux pump inhibitor phenylalanine-arginine-beta-naphthylamide
Klebsiella aerogenes [8] = test: Antimicrobial activity against multidrug resistant Enterobacter aerogenes isolate 24 by broth dilution method in presence of 26.3 mg/L efflux pump inhibitor phenylalanine-arginine-beta-naphthylamide
Klebsiella aerogenes [9] = test: Antimicrobial activity against multidrug resistant Enterobacter aerogenes isolate 25 by broth dilution method in presence of 26.3 mg/L efflux pump inhibitor phenylalanine-arginine-beta-naphthylamide
Klebsiella aerogenes [10] = test: Antimicrobial activity against multidrug resistant Enterobacter aerogenes isolate 27 by broth dilution method in presence of 26.3 mg/L efflux pump inhibitor phenylalanine-arginine-beta-naphthylamide
Klebsiella pneumoniae [11] = test: Antimicrobial activity against multidrug resistant Klebsiella pneumoniae isolate 4 by broth dilution method in presence of 26.3 mg/L efflux pump inhibitor phenylalanine-arginine-beta-naphthylamide
Klebsiella pneumoniae [12] = test: Antimicrobial activity against multidrug resistant Klebsiella pneumoniae isolate 6 by broth dilution method in presence of 26.3 mg/L efflux pump inhibitor phenylalanine-arginine-beta-naphthylamide
Klebsiella pneumoniae [13] = test: Antimicrobial activity against multidrug resistant Klebsiella pneumoniae isolate 10 by broth dilution method in presence of 26.3 mg/L efflux pump inhibitor phenylalanine-arginine-beta-naphthylamide
Klebsiella pneumoniae [14] = test: Antimicrobial activity against multidrug resistant Klebsiella pneumoniae isolate 11 by broth dilution method in presence of 26.3 mg/L efflux pump inhibitor phenylalanine-arginine-beta-naphthylamide
Klebsiella pneumoniae [15] = test: Antimicrobial activity against multidrug resistant Klebsiella pneumoniae isolate 12 by broth dilution method in presence of 26.3 mg/L efflux pump inhibitor phenylalanine-arginine-beta-naphthylamide
Klebsiella pneumoniae [16] = test: Antimicrobial activity against multidrug resistant Klebsiella pneumoniae isolate 14 by broth dilution method in presence of 26.3 mg/L efflux pump inhibitor phenylalanine-arginine-beta-naphthylamide
Klebsiella pneumoniae [17] = test: Antimicrobial activity against multidrug resistant Klebsiella pneumoniae isolate 15 by broth dilution method in presence of 26.3 mg/L efflux pump inhibitor phenylalanine-arginine-beta-naphthylamide
Klebsiella pneumoniae [18] = test: Antimicrobial activity against multidrug resistant Klebsiella pneumoniae isolate 16 by broth dilution method in presence of 26.3 mg/L efflux pump inhibitor phenylalanine-arginine-beta-naphthylamide
Klebsiella aerogenes [19] = test: Antimicrobial activity against multidrug resistant Enterobacter aerogenes ATCC 15038 by broth dilution method in presence of 26.3 mg/L efflux pump inhibitor phenylalanine-arginine-beta-naphthylamide
Klebsiella aerogenes [20] = test: Antimicrobial activity against multidrug resistant Enterobacter aerogenes isolate 1 by broth dilution method
Klebsiella aerogenes [21] = test: Antimicrobial activity against multidrug resistant Enterobacter aerogenes isolate 2 by broth dilution method
Klebsiella aerogenes [22] = test: Antimicrobial activity against multidrug resistant Enterobacter aerogenes isolate 4 by broth dilution method
Klebsiella aerogenes [23] = test: Antimicrobial activity against multidrug resistant Enterobacter aerogenes isolate 6 by broth dilution method
Klebsiella aerogenes [24] = test: Antimicrobial activity against multidrug resistant Enterobacter aerogenes isolate 9 by broth dilution method
Klebsiella aerogenes [25] = test: Antimicrobial activity against multidrug resistant Enterobacter aerogenes isolate 10 by broth dilution method
Klebsiella aerogenes [26] = test: Antimicrobial activity against multidrug resistant Enterobacter aerogenes isolate 13 by broth dilution method
Klebsiella aerogenes [27] = test: Antimicrobial activity against multidrug resistant Enterobacter aerogenes isolate 14 by broth dilution method
Klebsiella aerogenes [28] = test: Antimicrobial activity against multidrug resistant Enterobacter aerogenes isolate 15 by broth dilution method
Klebsiella aerogenes [29] = test: Antimicrobial activity against multidrug resistant Enterobacter aerogenes isolate 19 by broth dilution method
Klebsiella aerogenes [30] = test: Antimicrobial activity against multidrug resistant Enterobacter aerogenes isolate 21 by broth dilution method
Klebsiella aerogenes [31] = test: Antimicrobial activity against multidrug resistant Enterobacter aerogenes isolate 24 by broth dilution method
Klebsiella pneumoniae [32] = test: Antimicrobial activity against multidrug resistant Klebsiella pneumoniae ATCC 11296 by broth dilution method
Klebsiella pneumoniae [33] = test: Antimicrobial activity against multidrug resistant Klebsiella pneumoniae isolate 1 by broth dilution method
Klebsiella pneumoniae [34] = test: Antimicrobial activity against multidrug resistant Klebsiella pneumoniae isolate 2 by broth dilution method
Klebsiella pneumoniae [35] = test: Antimicrobial activity against multidrug resistant Klebsiella pneumoniae isolate 3 by broth dilution method
Klebsiella pneumoniae [36] = test: Antimicrobial activity against multidrug resistant Klebsiella pneumoniae isolate 4 by broth dilution method
Klebsiella pneumoniae [37] = test: Antimicrobial activity against multidrug resistant Klebsiella pneumoniae isolate 6 by broth dilution method
Klebsiella pneumoniae [38] = test: Antimicrobial activity against multidrug resistant Klebsiella pneumoniae isolate 8 by broth dilution method
Klebsiella pneumoniae [39] = test: Antimicrobial activity against multidrug resistant Klebsiella pneumoniae isolate 10 by broth dilution method
Klebsiella pneumoniae [40] = test: Antimicrobial activity against multidrug resistant Klebsiella pneumoniae isolate 11 by broth dilution method
Klebsiella pneumoniae [41] = test: Antimicrobial activity against multidrug resistant Klebsiella pneumoniae isolate 13 by broth dilution method
Klebsiella pneumoniae [42] = test: Antimicrobial activity against multidrug resistant Klebsiella pneumoniae isolate 14 by broth dilution method
Klebsiella pneumoniae [43] = test: Antimicrobial activity against multidrug resistant Klebsiella pneumoniae isolate 16 by broth dilution method
Klebsiella aerogenes [44] = test: Antimicrobial activity against multidrug resistant Enterobacter aerogenes ATCC 15038 by broth dilution method
Klebsiella aerogenes [45] = test: Antimicrobial activity against multidrug resistant Enterobacter aerogenes isolate 2 by broth dilution method in presence of 26.3 mg/L efflux pump inhibitor phenylalanine-arginine-beta-naphthylamide
Klebsiella aerogenes [46] = test: Antimicrobial activity against multidrug resistant Enterobacter aerogenes isolate 3 by broth dilution method in presence of 26.3 mg/L efflux pump inhibitor phenylalanine-arginine-beta-naphthylamide
Klebsiella aerogenes [47] = test: Antimicrobial activity against multidrug resistant Enterobacter aerogenes isolate 5 by broth dilution method in presence of 26.3 mg/L efflux pump inhibitor phenylalanine-arginine-beta-naphthylamide
Klebsiella aerogenes [48] = test: Antimicrobial activity against multidrug resistant Enterobacter aerogenes isolate 10 by broth dilution method in presence of 26.3 mg/L efflux pump inhibitor phenylalanine-arginine-beta-naphthylamide
Klebsiella aerogenes [49] = test: Antimicrobial activity against multidrug resistant Enterobacter aerogenes isolate 12 by broth dilution method in presence of 26.3 mg/L efflux pump inhibitor phenylalanine-arginine-beta-naphthylamide

C[C@@H]1CN(c2c(F)c(N)c3c(=O)c(C(=O)O)cn(C4CC4)c3c2F)C[C@H](C)N1 [SPARFLOXACIN]
MIC (Klebsiella aerogenes [1]): 8 µg/mL
MIC (Klebsiella aerogenes [2]): 8 µg/mL
MIC (Klebsiella aerogenes [3]): 16 µg/mL
MIC (Klebsiella aerogenes [4]): 16 µg/mL
MIC (Klebsiella aerogenes [5]): 32 µg/mL
MIC (Klebsiella aerogenes [6]): 8 µg/mL
MIC (Klebsiella aerogenes [7]): 4 µg/mL
MIC (Klebsiella aerogenes [8]): 16 µg/mL
MIC (Klebsiella aerogenes [9]): 8 µg/mL
MIC (Klebsiella aerogenes [10]): 8 µg/mL
MIC (Klebsiella pneumoniae [11]): 2 µg/mL
MIC (Klebsiella pneumoniae [12]): ≤ 0.06 µg/mL
MIC (Klebsiella pneumoniae [13]): 2 µg/mL
MIC (Klebsiella pneumoniae [14]): 2 µg/mL
MIC (Klebsiella pneumoniae [15]): ≤ 0.06 µg/mL
MIC (Klebsiella pneumoniae [16]): ≤ 0.06 µg/mL
MIC (Klebsiella pneumoniae [17]): 8 µg/mL
MIC (Klebsiella pneumoniae [18]): ≤ 0.06 µg/mL
MIC (Klebsiella aerogenes [19]): ≤ 0.06 µg/mL
MIC (Klebsiella aerogenes [20]): 256 µg/mL (≈ 652 µM)
MIC (Klebsiella aerogenes [21]): 128 µg/mL (≈ 326 µM)
MIC (Klebsiella aerogenes [22]): 128 µg/mL (≈ 326 µM)
MIC (Klebsiella aerogenes [23]): 0.125 µg/mL (≈ 0.319 µM)
MIC (Klebsiella aerogenes [24]): 128 µg/mL (≈ 326 µM)
MIC (Klebsiella aerogenes [25]): 256 µg/mL (≈ 652 µM)
MIC (Klebsiella aerogenes [26]): 256 µg/mL (≈ 652 µM)
MIC (Klebsiella aerogenes [27]): 128 µg/mL (≈ 326 µM)
MIC (Klebsiella aerogenes [28]): 128 µg/mL (≈ 326 µM)
MIC (Klebsiella aerogenes [29]): 128 µg/mL (≈ 326 µM)
MIC (Klebsiella aerogenes [30]): 512 µg/mL (≈ 1300 µM)
MIC (Klebsiella aerogenes [31]): 256 µg/mL (≈ 652 µM)
MIC (Klebsiella pneumoniae [32]): ≤ 0.06 µg/mL
MIC (Klebsiella pneumoniae [33]): 0.25 µg/mL (≈ 0.637 µM)
MIC (Klebsiella pneumoniae [34]): 2 µg/mL (≈ 5.1 µM)
MIC (Klebsiella pneumoniae [35]): 8 µg/mL (≈ 20.4 µM)
MIC (Klebsiella pneumoniae [36]): 8 µg/mL (≈ 20.4 µM)
MIC (Klebsiella pneumoniae [37]): ≤ 0.06 µg/mL
MIC (Klebsiella pneumoniae [38]): 0.125 µg/mL (≈ 0.319 µM)
MIC (Klebsiella pneumoniae [39]): 8 µg/mL (≈ 20.4 µM)
MIC (Klebsiella pneumoniae [40]): 8 µg/mL (≈ 20.4 µM)
MIC (Klebsiella pneumoniae [41]): 2.1 µg/mL (≈ 5.35 µM)
MIC (Klebsiella pneumoniae [42]): 2 µg/mL (≈ 5.1 µM)
MIC (Klebsiella pneumoniae [43]): 0.125 µg/mL (≈ 0.319 µM)
MIC (Klebsiella aerogenes [44]): ≤ 0.06 µg/mL
MIC (Klebsiella aerogenes [45]): 8 µg/mL
MIC (Klebsiella aerogenes [46]): 8 µg/mL
MIC (Klebsiella aerogenes [47]): 16 µg/mL
MIC (Klebsiella aerogenes [48]): 8 µg/mL
MIC (Klebsiella aerogenes [49]): 8 µg/mL

CCn1cc(C(=O)O)c(=O)c2cc(F)c(N3CCNCC3)cc21 [NORFLOXACIN]
MIC (Klebsiella aerogenes [1]): 128 µg/mL
MIC (Klebsiella aerogenes [2]): 128 µg/mL
MIC (Klebsiella aerogenes [3]): 128 µg/mL
MIC (Klebsiella aerogenes [4]): 128 µg/mL
MIC (Klebsiella aerogenes [5]): 128 µg/mL
MIC (Klebsiella aerogenes [6]): 128 µg/mL
MIC (Klebsiella aerogenes [7]): 256 µg/mL
MIC (Klebsiella aerogenes [8]): 128 µg/mL
MIC (Klebsiella aerogenes [9]): 128 µg/mL
MIC (Klebsiella aerogenes [10]): 128 µg/mL
MIC (Klebsiella pneumoniae [11]): 128 µg/mL
MIC (Klebsiella pneumoniae [12]): 0.25 µg/mL
MIC (Klebsiella pneumoniae [13]): 128 µg/mL
MIC (Klebsiella pneumoniae [14]): 64 µg/mL
MIC (Klebsiella pneumoniae [15]): 0.25 µg/mL
MIC (Klebsiella pneumoniae [16]): 0.25 µg/mL
MIC (Klebsiella pneumoniae [17]): 256 µg/mL
MIC (Klebsiella pneumoniae [18]): 0.5 µg/mL
MIC (Klebsiella aerogenes [19]): 0.125 µg/mL
MIC (Klebsiella aerogenes [20]): 256 µg/mL (≈ 802 µM)
MIC (Klebsiella aerogenes [21]): 256 µg/mL (≈ 802 µM)
MIC (Klebsiella aerogenes [22]): 512 µg/mL (≈ 1600 µM)
MIC (Klebsiella aerogenes [23]): 64 µg/mL (≈ 200 µM)
MIC (Klebsiella aerogenes [24]): 128 µg/mL (≈ 401 µM)
MIC (Klebsiella aerogenes [25]): 256 µg/mL (≈ 802 µM)
MIC (Klebsiella aerogenes [26]): 512 µg/mL (≈ 1600 µM)
MIC (Klebsiella aerogenes [27]): 512 µg/mL (≈ 1600 µM)
MIC (Klebsiella aerogenes [28]): 512 µg/mL (≈ 1600 µM)
MIC (Klebsiella aerogenes [29]): 128 µg/mL (≈ 401 µM)
MIC (Klebsiella aerogenes [30]): 512 µg/mL (≈ 1600 µM)
MIC (Klebsiella aerogenes [31]): 512 µg/mL (≈ 1600 µM)
MIC (Klebsiella pneumoniae [32]): 0.5 µg/mL (≈ 1.57 µM)
MIC (Klebsiella pneumoniae [33]): 2 µg/mL (≈ 6.26 µM)
MIC (Klebsiella pneumoniae [34]): 4 µg/mL (≈ 12.5 µM)
MIC (Klebsiella pneumoniae [35]): 128 µg/mL (≈ 401 µM)
MIC (Klebsiella pneumoniae [36]): 128 µg/mL (≈ 401 µM)
MIC (Klebsiella pneumoniae [37]): 1 µg/mL (≈ 3.13 µM)
MIC (Klebsiella pneumoniae [38]): 2 µg/mL (≈ 6.26 µM)
MIC (Klebsiella pneumoniae [39]): 128 µg/mL (≈ 401 µM)
MIC (Klebsiella pneumoniae [40]): 64 µg/mL (≈ 200 µM)
MIC (Klebsiella pneumoniae [41]): > 256 µg/mL
MIC (Klebsiella pneumoniae [42]): 8 µg/mL (≈ 25.1 µM)
MIC (Klebsiella pneumoniae [43]): 1 µg/mL (≈ 3.13 µM)
MIC (Klebsiella aerogenes [44]): 0.125 µg/mL (≈ 0.391 µM)
MIC (Klebsiella aerogenes [45]): 256 µg/mL
MIC (Klebsiella aerogenes [46]): 256 µg/mL
MIC (Klebsiella aerogenes [47]): 512 µg/mL
MIC (Klebsiella aerogenes [48]): 256 µg/mL
MIC (Klebsiella aerogenes [49]): 512 µg/mL
